Measured values reported in the supplement of paper PMC10307832.

Assays:
Assay in all cases: relative viability (nuclei count vs DMSO), 5 days (fraction); higher = more cells survive
NCI-H2023 = system: NCI-H2023
How it was run: (§1)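 Lung cancer cell lines, seeded in 1536-well plates, were treated the following day by pin tool with a single drug or with five library-drug doses (not always all listed) in √10 steps on top of a fixed anchor-drug dose. Cells were fixed and nuclei stained in one step after 5 days, and nuclei were counted. Relative viability is the nuclei count for treated wells divided by that for vehicle wells, reported as medians of duplicate plates.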

NCI-H727 = system: NCI-H727
How it was run: as §1

HCC-827 = system: HCC-827
How it was run: as §1

BEN = system: BEN
How it was run: as §1

LCLC-103H = system: LCLC-103H
How it was run: as §1

NCI-H1793 = system: NCI-H1793
How it was run: as §1

LXF-289 = system: LXF-289
How it was run: as §1

HOP-62 = system: HOP-62
How it was run: as §1

RERF-LC-KJ = system: RERF-LC-KJ
How it was run: as §1

NCI-H1395 = system: NCI-H1395
How it was run: as §1

NCI-H3122 = system: NCI-H3122
How it was run: as §1

NCI-H1437 = system: NCI-H1437
How it was run: as §1

NCI-H2087 = system: NCI-H2087
How it was run: as §1

NCI-H647 = system: NCI-H647
How it was run: as §1

LCLC-97TM1 = system: LCLC-97TM1
How it was run: as §1

NCI-H322M = system: NCI-H322M
How it was run: as §1

NCI-H1355 = system: NCI-H1355
How it was run: as §1

NCI-H1650 = system: NCI-H1650
How it was run: as §1

NCI-H2405 = system: NCI-H2405
How it was run: as §1

HCC-44 = system: HCC-44
How it was run: as §1

NCI-H2228 = system: NCI-H2228
How it was run: as §1

SK-LU-1 = system: SK-LU-1
How it was run: as §1

201T = system: 201T
How it was run: as §1

CAL-12T = system: CAL-12T
How it was run: as §1

For CC(C)Oc1cc(Nc2nc(N[C@@H](C)c3ccc(F)cn3)ncc2Cl)n[nH]1 [AZ23] + Cc1cc(Nc2cc(N3CCN(C)CC3)nc(Sc3ccc(NC(=O)C4CC4)cc3)n2)n[nH]1 [Tozasertib] (partner 0.1 µM), the relative viability (NCI-H2023; first compound 0.03162 µM) was 0.457, the relative viability (NCI-H2023; first compound 0.3162 µM) was 0.46 and the relative viability (NCI-H727; first compound 0.01 µM) was 0.754. It also gave a relative viability (NCI-H727; first compound 0.03162 µM) of 0.679, a relative viability (NCI-H727; first compound 0.3162 µM) of 0.37 and a relative viability (HCC-827; first compound 0.01 µM) of 0.448. For the same compound, the relative viability (HCC-827; first compound 0.03162 µM) was 0.445, the relative viability (HCC-827; first compound 0.3162 µM) was 0.415 and the relative viability (BEN; first compound 0.01 µM) was 0.483. It also gave a relative viability (BEN; first compound 0.03162 µM) of 0.544, a relative viability (BEN; first compound 0.3162 µM) of 0.527 and a relative viability (LCLC-103H; first compound 0.01 µM) of 0.467. For the same compound, the relative viability (LCLC-103H; first compound 0.03162 µM) was 0.491, the relative viability (LCLC-103H; first compound 0.3162 µM) was 0.559 and the relative viability (NCI-H1793; first compound 0.01 µM) was 0.317. It also gave a relative viability (NCI-H1793; first compound 0.03162 µM) of 0.373, a relative viability (NCI-H1793; first compound 0.3162 µM) of 0.339 and a relative viability (LXF-289; first compound 0.01 µM) of 0.222. It also gave a relative viability (LXF-289; first compound 0.03162 µM) of 0.205, a relative viability (LXF-289; first compound 0.3162 µM) of 0.204 and a relative viability (HOP-62; first compound 0.01 µM) of 0.352. The relative viability (HOP-62; first compound 0.03162 µM) was 0.424, the relative viability (HOP-62; first compound 0.3162 µM) was 0.37 and the relative viability (RERF-LC-KJ; first compound 0.01 µM) was 0.532. The relative viability (RERF-LC-KJ; first compound 0.03162 µM) was 0.569, the relative viability (RERF-LC-KJ; first compound 0.3162 µM) was 0.572 and the relative viability (NCI-H1395; first compound 0.03162 µM) was 0.812. For the same compound, the relative viability (NCI-H1395; first compound 0.3162 µM) was 0.815, the relative viability (NCI-H3122; first compound 0.01 µM) was 0.504 and the relative viability (NCI-H3122; first compound 0.03162 µM) was 0.456. For the same compound, the relative viability (NCI-H3122; first compound 0.3162 µM) was 0.52, the relative viability (NCI-H1437; first compound 0.01 µM) was 0.434 and the relative viability (NCI-H1437; first compound 0.03162 µM) was 0.449. It also gave a relative viability (NCI-H1437; first compound 0.3162 µM) of 0.413, a relative viability (NCI-H2087; first compound 0.01 µM) of 0.271 and a relative viability (NCI-H2087; first compound 0.03162 µM) of 0.245. The relative viability (NCI-H2087; first compound 0.3162 µM) was 0.245, the relative viability (NCI-H647; first compound 0.01 µM) was 0.146 and the relative viability (NCI-H647; first compound 0.03162 µM) was 0.449. For the same compound, the relative viability (NCI-H647; first compound 0.3162 µM) was 0.261, the relative viability (LCLC-97TM1; first compound 0.01 µM) was 0.186 and the relative viability (LCLC-97TM1; first compound 0.03162 µM) was 0.266. For the same compound, the relative viability (LCLC-97TM1; first compound 0.3162 µM) was 0.194, the relative viability (NCI-H322M; first compound 0.03162 µM) was 0.501 and the relative viability (NCI-H322M; first compound 0.3162 µM) was 0.434. It also gave a relative viability (NCI-H1355; first compound 0.01 µM) of 0.507, a relative viability (NCI-H1355; first compound 0.03162 µM) of 0.609 and a relative viability (NCI-H1355; first compound 0.3162 µM) of 0.597. For the same compound, the relative viability (NCI-H1650; first compound 0.03162 µM) was 0.433, the relative viability (NCI-H1650; first compound 0.3162 µM) was 0.45 and the relative viability (NCI-H2405; first compound 0.01 µM) was 0.709. It also gave a relative viability (NCI-H2405; first compound 0.03162 µM) of 0.774, a relative viability (NCI-H2405; first compound 0.3162 µM) of 0.808 and a relative viability (HCC-44; first compound 0.01 µM) of 0.991. It also gave a relative viability (HCC-44; first compound 0.03162 µM) of 0.841, a relative viability (HCC-44; first compound 0.3162 µM) of 1.15 and a relative viability (NCI-H2228; first compound 0.01 µM) of 0.219. It also gave a relative viability (NCI-H2228; first compound 0.03162 µM) of 0.247, a relative viability (NCI-H2228; first compound 0.3162 µM) of 0.265 and a relative viability (SK-LU-1; first compound 0.03162 µM) of 0.382. The relative viability (SK-LU-1; first compound 0.3162 µM) was 0.335, the relative viability (201T; first compound 0.01 µM) was 1.03 and the relative viability (201T; first compound 0.03162 µM) was 0.968. It also gave a relative viability (201T; first compound 0.3162 µM) of 0.985, a relative viability (CAL-12T; first compound 0.03162 µM) of 0.342 and a relative viability (CAL-12T; first compound 0.3162 µM) of 0.241.

For CC(C)Oc1cc(Nc2nc(N[C@@H](C)c3ccc(F)cn3)ncc2Cl)n[nH]1 [AZ23] + CC(=O)c1c(C)c2cnc(Nc3ccc(N4CCNCC4)cn3)nc2n(C2CCCC2)c1=O [Palbociclib] (partner 0.5 µM), the relative viability (NCI-H2023; first compound 0.03162 µM) was 0.369, the relative viability (NCI-H2023; first compound 0.3162 µM) was 0.264 and the relative viability (NCI-H727; first compound 0.01 µM) was 0.59. For the same compound, the relative viability (NCI-H727; first compound 0.03162 µM) was 0.66, the relative viability (NCI-H727; first compound 0.3162 µM) was 0.619 and the relative viability (HCC-827; first compound 0.01 µM) was 0.47. For the same compound, the relative viability (HCC-827; first compound 0.03162 µM) was 0.535, the relative viability (HCC-827; first compound 0.3162 µM) was 0.471 and the relative viability (BEN; first compound 0.01 µM) was 0.475. The relative viability (BEN; first compound 0.03162 µM) was 0.458, the relative viability (BEN; first compound 0.3162 µM) was 0.455 and the relative viability (LCLC-103H; first compound 0.01 µM) was 0.485. It also gave a relative viability (LCLC-103H; first compound 0.03162 µM) of 0.421, a relative viability (LCLC-103H; first compound 0.3162 µM) of 0.503 and a relative viability (NCI-H1793; first compound 0.01 µM) of 0.347. It also gave a relative viability (NCI-H1793; first compound 0.03162 µM) of 0.35, a relative viability (NCI-H1793; first compound 0.3162 µM) of 0.247 and a relative viability (LXF-289; first compound 0.01 µM) of 0.739. It also gave a relative viability (LXF-289; first compound 0.03162 µM) of 0.631, a relative viability (LXF-289; first compound 0.3162 µM) of 0.534 and a relative viability (HOP-62; first compound 0.01 µM) of 0.507. The relative viability (HOP-62; first compound 0.03162 µM) was 0.467, the relative viability (HOP-62; first compound 0.3162 µM) was 0.437 and the relative viability (RERF-LC-KJ; first compound 0.01 µM) was 1.13. For the same compound, the relative viability (RERF-LC-KJ; first compound 0.03162 µM) was 1.14, the relative viability (RERF-LC-KJ; first compound 0.3162 µM) was 1.14 and the relative viability (NCI-H1395; first compound 0.03162 µM) was 0.694. It also gave a relative viability (NCI-H1395; first compound 0.3162 µM) of 0.641, a relative viability (NCI-H3122; first compound 0.01 µM) of 0.197 and a relative viability (NCI-H3122; first compound 0.03162 µM) of 0.173. It also gave a relative viability (NCI-H3122; first compound 0.3162 µM) of 0.23, a relative viability (NCI-H1437; first compound 0.01 µM) of 0.304 and a relative viability (NCI-H1437; first compound 0.03162 µM) of 0.324. It also gave a relative viability (NCI-H1437; first compound 0.3162 µM) of 0.335, a relative viability (NCI-H2087; first compound 0.01 µM) of 0.255 and a relative viability (NCI-H2087; first compound 0.03162 µM) of 0.21. The relative viability (NCI-H2087; first compound 0.3162 µM) was 0.22, the relative viability (NCI-H647; first compound 0.01 µM) was 0.408 and the relative viability (NCI-H647; first compound 0.03162 µM) was 0.405. For the same compound, the relative viability (NCI-H647; first compound 0.3162 µM) was 0.466, the relative viability (LCLC-97TM1; first compound 0.01 µM) was 0.261 and the relative viability (LCLC-97TM1; first compound 0.03162 µM) was 0.248. It also gave a relative viability (LCLC-97TM1; first compound 0.3162 µM) of 0.203, a relative viability (NCI-H322M; first compound 0.01 µM) of 0.446 and a relative viability (NCI-H322M; first compound 0.03162 µM) of 0.472. For the same compound, the relative viability (NCI-H322M; first compound 0.3162 µM) was 0.485, the relative viability (NCI-H1355; first compound 0.01 µM) was 0.437 and the relative viability (NCI-H1355; first compound 0.03162 µM) was 0.455. It also gave a relative viability (NCI-H1355; first compound 0.3162 µM) of 0.375, a relative viability (NCI-H1650; first compound 0.01 µM) of 0.303 and a relative viability (NCI-H1650; first compound 0.03162 µM) of 0.439. For the same compound, the relative viability (NCI-H1650; first compound 0.3162 µM) was 0.378, the relative viability (NCI-H2405; first compound 0.01 µM) was 0.585 and the relative viability (NCI-H2405; first compound 0.03162 µM) was 0.52. It also gave a relative viability (NCI-H2405; first compound 0.3162 µM) of 0.589, a relative viability (HCC-44; first compound 0.01 µM) of 0.982 and a relative viability (HCC-44; first compound 0.03162 µM) of 0.994. The relative viability (HCC-44; first compound 0.3162 µM) was 0.93, the relative viability (NCI-H2228; first compound 0.01 µM) was 0.809 and the relative viability (NCI-H2228; first compound 0.03162 µM) was 0.811. It also gave a relative viability (NCI-H2228; first compound 0.3162 µM) of 0.907, a relative viability (SK-LU-1; first compound 0.03162 µM) of 0.416 and a relative viability (SK-LU-1; first compound 0.3162 µM) of 0.414. The relative viability (201T; first compound 0.01 µM) was 0.359, the relative viability (201T; first compound 0.03162 µM) was 0.38 and the relative viability (201T; first compound 0.3162 µM) was 0.372. For the same compound, the relative viability (CAL-12T; first compound 0.03162 µM) was 0.285 and the relative viability (CAL-12T; first compound 0.3162 µM) was 0.414.
